In the assay the test system is A2780 cells. As to the kind of experiment: Test for induction of differentiation in A2780 cells (ALP activity, ALPmin). Type of assay: cell-based, human. The method, then: Increase of alkaline phosphatase (ALP) activity is known as an indicator for differentiation of human colon cancer cells. […] Thus, differentiation inducing action was evaluated using ALP activity as an indicator.
To each well of a 96-well plate was placed 0.1 mL of A2780 cells (15,000 cells/well) and the next day was added 0.1 mL of a sequential dilute of test solution with the medium. […] The reaction was quenched with 0.05 mL/well of 3N sodium hydroxide aq. For each well, an absorbance at 405 nm was measured to determine the minimum concentration of the drug inducing increase of ALP activity (ALPmin).

Where [1] appears, read: Homo sapiens, 72 h, A2780 cells, 3 days incubation, minimum concentration of the drug inducing increase of ALP activity.
Setting [2] is: A2780 cells, 3 days incubation, minimum concentration of the drug inducing increase of ALP activity.

Counter-ions that a name gives are not always drawn. Like-named read-outs stand apart in the source and are kept apart here.

As for `Nc1cccc(NC(=O)c2ccc(CNC(=O)OCc3cccnc3)cc2)c1` [Comp. Ex. 1, N-(3-aminophenyl)-4-[N-(pyridin-3-yl)methoxycarbonylaminomethyl]benzamide, reference compound], the minimal effective concentration under setting [1] was over 100 µM. For the compound `Nc1ccc(NC(=O)c2ccc(CNC(=O)OCc3cccnc3)cc2)cc1` [Comp. Ex. 2, N-(4-aminophenyl)-4-[N-(pyridin-3-yl)methoxycarbonylaminomethyl]benzamide, reference compound], under setting [1], the minimal effective concentration is over 100 µM. The same measure, in the same setting: to `Cc1ccc(C(=O)NCc2ccc(C(=O)Nc3ccccc3N)cc2)cc1` [Example 4, N-(2-aminophenyl)-4-[N-(4-methylbenzoyl)aminomethyl]benzamide hydrochloride] belongs 1 µM; to `Nc1ccccc1NC(=O)c1ccc(CNC(=O)c2ccc(C(=O)O)cc2)cc1` [Example 10, N-(2-aminophenyl)-4-[N-(4-carboxybenzoyl)aminomethyl]benzamide hydrochloride], 3 µM. Under setting [2], `COC(=O)c1ccc(C(=O)NCc2ccc(C(=O)Nc3ccccc3N)cc2)cc1` [Example 11, N-(2-aminophenyl)-4-[N-(4-methoxycarboxybenzoyl)aminomethyl]benzamide] came in with a minimal effective concentration of 1 µM. On to `Cn1cccc1C(=O)NCc1ccc(C(=O)Nc2ccccc2N)cc1` [Example 24, N-(2-aminophenyl)-4-[N-(N′-methyl-1H-pyrrol-2-yl)carbonylaminomethyl]benzamide], for which, under setting [2], the minimal effective concentration worked out at 1 µM.

As to `Nc1ccccc1NC(=O)c1ccc(CNC(=O)c2c[nH]cn2)cc1` [Example 27, N-(2-aminophenyl)-4-[N-(imidazol-4-yl)carbonylaminomethyl]benzamide], the minimal effective concentration under setting [1] was determined as 10 µM. Same read-out and setting: to `Nc1ccccc1NC(=O)c1ccc(CNC(=O)CNc2cccnc2)cc1` [Example 35, N-(2-aminophenyl)-4-[N-[N-(pyridin-3-yl)aminoacetyl]aminomethyl]benzamide] belongs 0.3 µM; to `Nc1nc(CC(=O)NCc2ccc(C(=O)Nc3ccccc3N)cc2)cs1` [Example 36, N-(2-aminophenyl)-4-[N-(2-aminothiazol-4-yl)acetylaminomethyl]benzamide], 10 µM; to `O=C(CCc1cccnc1)NCc1ccc(C(=O)Nc2ccccc2O)cc1` [Example 40, N-(2-hydroxyphenyl)-4-[N-[3-(pyridin-3-yl)propionyl]aminomethyl]benzamide], 10 µM. `O=C(COc1cccnc1)NCc1ccc(C(=O)Nc2ccccc2O)cc1` [Example 41, N-(2-hydroxyphenyl)-4-[N-(pyridin-3-yl)oxyacetylaminomethyl]benzamide] came in with a minimal effective concentration under setting [1] of 0.3 µM.

Compound `Nc1ccccc1NC(=O)c1ccc(CN(CCCc2cccnc2)C(=O)COc2cccnc2)cc1` [Example 43, N-(2-aminophenyl)-4-[N-(pyridin-3-yl)oxyacetyl-N-[3-(pyridin-3-yl)propyl]aminomethyl]benzamide] had a minimal effective concentration under setting [1] of 3 µM. The compound `CN(Cc1ccc(C(=O)Nc2ccccc2N)cc1)C(=O)COc1cccnc1` [Example 44, N-(2-aminophenyl)-4-[N-methyl-N-(pyridin-3-yl)oxyacetyl]aminomethylbenzamide] showed a minimal effective concentration of 0.01 µM.

Compound `Nc1ccccc1NC(=O)c1ccc(CNC(=O)OCc2ccccc2)cc1` [Example 49, N-(2-aminophenyl)-4-[N-(benzyloxycarbonyl)aminomethyl]benzamide] gave a minimal effective concentration under setting [1] of 1 µM. Same read-out and setting: the result for `Nc1ccccc1NC(=O)c1ccc(CNC(=O)OCc2cccnc2Cl)cc1` [Example 58, N-(2-aminophenyl)-4-[N-(2-chloropyridin-3-yl)methoxycarbonylaminomethyl]benzamide] reads 3 µM. `Cc1ncsc1CCOC(=O)NCc1ccc(C(=O)Nc2ccccc2N)cc1` [Example 64, N-(2-aminophenyl)-4-C[N-[2-(4-methylthiazol-5-yl)ethoxycarbonyl]aminomethyl]benzamide] had a minimal effective concentration under setting [2] of 3 µM. Compound `CN1CCN(COC(=O)NCc2ccc(C(=O)Nc3ccccc3N)cc2)CC1` [Example 66, N-(2-aminophenyl)-4-[N-(4-methylpiperazin-1-yl)methoxycarbonylaminomethyl]benzamide] registered a minimal effective concentration under setting [1] of 3 µM. `Nc1ccccc1NC(=O)c1ccc(CNC(=O)OCC2CCOC2)cc1` (centres unmarked) [Example 67, N-(2-aminophenyl)-4-[N-(tetrahydrofuran-3-yl)methoxycarbonylaminomethyl]benzamide] returned a minimal effective concentration under setting [1] of 3 µM. On the same count and under the same terms, the result for `Nc1ccc(F)cc1NC(=O)c1ccc(CNC(=O)OCc2cccnc2)cc1` [Example 70, N-(2-amino-5-fluorophenyl)-4-[N-(pyridin-3-yl)methoxycarbonylaminomethyl]benzamide] reads 0.1 µM. In the case of `Nc1ccccc1NC(=O)c1ccc(CNC(=O)OC2CN3CCC2CC3)cc1` (centres unmarked) [Example 72, N-(2-aminophenyl)-4-[N-(quinuclidin-3-yl)oxycarbonylaminomethyl]benzamide], the minimal effective concentration under setting [2] worked out at 10 µM. Turning to `Nc1ccccc1NC(=O)c1ccc(CN(Cc2cccnc2)C(=O)OCc2cccnc2)cc1` [Example 79, N-(2-aminophenyl)-4-[N-(pyridin-3-yl)methyl-N-(pyridin-3-yl)methoxycarbonylaminomethyl]benzamide], under setting [1], the minimal effective concentration is 0.1 µM. Under setting [1], `Nc1ccccc1NC(=O)c1ccc(CN(CCCc2cccnc2)C(=O)OCc2cccnc2)cc1` [Example 80, N-(2-aminophenyl)-4-[N-[3-(Pyridin-3-yl)propyl]-N-(pyridin-3-yl)methoxycarbonylaminomethyl]benzamide] registered a minimal effective concentration of 0.1 µM. With `O=C(Nc1ccccc1O)c1ccc(CN(Cc2cccnc2)C(=O)OCc2cccnc2)cc1` [Example 81, N-(2-hydroxyphenyl)-4-[N-(pyridin-3-yl)methyl-N-(pyridin-3-yl)methoxycarbonylaminomethyl]benzamide], under setting [1], the minimal effective concentration was found to be 10 µM. Same read-out and setting: the result for `Nc1ccccc1NC(=O)c1ccc(NC(=O)OCCc2cccnc2)cc1` [Example 86, N-(2-aminophenyl)-4-[N-[2-(pyridin-3-yl)ethoxycarbonyl]amino]benzamide] reads 0.3 µM. In the case of `Nc1ccccc1NC(=O)c1ccc(CNC(=O)NCc2cccnc2)cc1` [Example 89, N-(2-aminophenyl)-4-[N′-(pyridin-3-ylmethyl)ureidomethyl]benzamide], the minimal effective concentration under setting [2] was determined as 0.3 µM. Same read-out and setting: to `Nc1cccc(NC(=O)NCc2ccc(C(=O)Nc3ccccc3N)cc2)c1` [Example 90, N-(2-aminophenyl)-4-[N′-(3-aminophenyl)ureidomethyl]benzamide] belongs 3 µM. Turning to `Nc1ccccc1NC(=O)c1ccc(CNC(=O)Nc2cccnc2)cc1` [Example 91, N-(2-aminophenyl)-4-[N′-(pyridin-3-yl)ureidomethyl]benzamide], under setting [2], the minimal effective concentration is given as 0.1 µM. Compound `Nc1cccc(NC(=S)NCc2ccc(C(=O)Nc3ccccc3N)cc2)c1` [Example 92, N-(2-aminophenyl)-4-[N′-(3-aminophenyl)thioureidomethyl]benzamide] had a minimal effective concentration under setting [2] of 3 µM. On to `Nc1ccccc1NC(=O)c1ccc(CNC(=S)Nc2cccc([N+](=O)[O-])c2)cc1` [Example 93, N-(2-aminophenyl)-4-[N′-(3-nitrophenyl)thioureidomethyl]benzamide], for which the minimal effective concentration under setting [2] was found to be 3 µM. With `Nc1ccc(F)cc1NC(=O)c1ccc(CNC(=O)NCc2cccnc2)cc1` [Example 94, N-(2-amino-5-fluorophenyl)-4-[N′-(pyridin-3-yl)methylureidomethyl]benzamide], the minimal effective concentration under setting [2] stood at 3 µM. With `O=C(NCc1ccc(C(=O)Nc2ccccc2O)cc1)NCc1cccnc1` [Example 95, N-(2-hydroxyphenyl)-4-[N′-(pyridin-3-yl)methylureidomethyl]benzamide], the minimal effective concentration under setting [2] came out at 3 µM. The compound `CC(=O)N(CCc1ccc(C(=O)Nc2ccccc2N)cc1)c1cccnc1` [Example 96, N-(2-aminophenyl)-4-[2-[N-(pyridin-3-yl)-acetylamino]ethyl]benzamide] registered a minimal effective concentration under setting [1] of 10 µM.

`Nc1ccccc1NC(=O)c1ccc(COC(=O)NCCCn2ccnc2)cc1` [Example 99, N-(2-aminophenyl)-4-[3-(imidazol-1-yl)propylaminocarbonyloxymethyl]benzamide] gave a minimal effective concentration under setting [1] of 3 µM.

`Nc1ccccc1NC(=O)c1ccc(NC(=O)CCCc2ccccc2)cc1` [Example 101, N-(2-aminophenyl)-4-[(4-phenylbutanoyl)amino]benzamide] yielded a minimal effective concentration under setting [1] of 3 µM.

Consider `Nc1ccccc1NC(=O)c1ccc(NC(=O)Cc2ccc(Cl)cc2)cc1` [Example 102, N-(2-aminophenyl)-4-[(4-chlorophenylacetyl)amino]benzamide], for which the minimal effective concentration under setting [1] is 3 µM. Still for that read-out and setting: the result for `Nc1ccccc1NC(=O)c1ccc(NC(=O)Cc2ccccc2[N+](=O)[O-])cc1` [Example 103, N-(2-aminophenyl)-4-[(2-nitrophenylacetyl)amino]benzamide hydrochloride] reads 1 µM; that for `COc1ccc(CC(=O)Nc2ccc(C(=O)Nc3ccccc3N)cc2)cc1` [Example 107, N-(2-aminophenyl)-4-[(4-methoxyphenylacetyl)amino]benzamide], 1 µM. `Nc1ccccc1NC(=O)c1ccc(NC(=O)Cc2ccc(C(F)(F)F)cc2)cc1` [Example 109, N-(2-aminophenyl)-4-[(4-trifluoromethylphenylacetyl)amino]benzamide] came in with a minimal effective concentration under setting [1] of 1 µM.

In general, minimal effective concentration refers to the smallest amount tested that counted as effective.

These data come from US7317028B2, “Cell differentiation inducer” (Schering Aktiengesellschaft, priority 1996, dated 2008).
